Reference: ChEMBL document CHEMBL1201862, “PubChem BioAssay data set” (2004)
Calls of active or inactive are those of the source.

Key:
[1] = A Cell Based Secondary Assay To Explore Cytotoxicity of Compounds that Sensitize Mycobacterium Tuberculosis to Beta-Lactam Antibiotics.; assay type: functional
[2] = Luminescence-based cell-based high throughput dose response assay to identify activators of the DAF-12 from the parasite S. stercoralis (ssDAF-12).; assay type: functional
[3] = biological target: T1, Oxysterols receptor LXR-beta (Homo sapiens, UniProt P55055); assay: LXR agonists, Gal4 luciferase reporter, dose response, counter-screen for ssDAF-12 agonist project, cell-based, luminescence, HEK293, S. stercoralis campaign (AID 720737); assay type: functional; conditions: read-out: IC50 (the source's name)
T1 sequence (P55055 whole entry): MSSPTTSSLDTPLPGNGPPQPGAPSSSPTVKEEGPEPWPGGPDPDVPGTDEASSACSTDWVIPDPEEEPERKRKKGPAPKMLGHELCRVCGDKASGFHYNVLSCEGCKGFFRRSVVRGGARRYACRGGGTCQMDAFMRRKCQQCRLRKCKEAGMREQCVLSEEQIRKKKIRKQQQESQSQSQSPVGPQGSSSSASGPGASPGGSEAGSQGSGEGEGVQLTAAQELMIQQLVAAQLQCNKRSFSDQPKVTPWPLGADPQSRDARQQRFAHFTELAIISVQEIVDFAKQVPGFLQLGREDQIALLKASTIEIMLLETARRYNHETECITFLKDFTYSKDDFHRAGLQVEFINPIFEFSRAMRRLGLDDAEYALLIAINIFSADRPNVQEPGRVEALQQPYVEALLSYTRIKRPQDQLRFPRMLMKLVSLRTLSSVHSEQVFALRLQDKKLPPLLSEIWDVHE

[4] = biological target: T2, E3 ubiquitin-protein ligase XIAP (Homo sapiens, UniProt P98170); assay: XIAP antagonists, biochemical, IAP family, fluorescence polarization (AID 1018); assay type: functional
T2 sequence (P98170 whole entry): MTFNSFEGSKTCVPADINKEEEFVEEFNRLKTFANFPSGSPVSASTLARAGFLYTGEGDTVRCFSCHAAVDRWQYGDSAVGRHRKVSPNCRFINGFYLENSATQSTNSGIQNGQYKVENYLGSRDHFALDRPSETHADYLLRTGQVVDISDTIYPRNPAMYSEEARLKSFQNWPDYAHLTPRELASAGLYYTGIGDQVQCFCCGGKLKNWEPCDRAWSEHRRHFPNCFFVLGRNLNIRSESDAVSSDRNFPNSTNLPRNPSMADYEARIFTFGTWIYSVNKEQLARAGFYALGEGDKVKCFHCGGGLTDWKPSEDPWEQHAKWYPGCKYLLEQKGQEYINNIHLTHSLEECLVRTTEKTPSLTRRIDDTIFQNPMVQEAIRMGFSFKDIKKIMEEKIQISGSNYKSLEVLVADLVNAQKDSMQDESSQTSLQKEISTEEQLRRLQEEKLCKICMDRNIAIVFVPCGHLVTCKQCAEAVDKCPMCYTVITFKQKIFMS

[5] = biological target: T2, E3 ubiquitin-protein ligase XIAP; assay: Counter Screen using XIAP-Bir3 for Chemical Antagonists of Bir1/2 domains of IAP-family anti-apoptotic proteins. [Related pubchem assays (depositor defined):AID1018, AID1449, AID1514, AID1638, AID1749, AID1750, AID488957, AID488963]
HEK293 = assay: inhibitors of LMP1-driven NF-kB reporter, dose response, cell-based, HEK293, luciferase, cherry-pick (AID 588343); assay type: functional; conditions: Homo sapiens
[6] = THP-1 cell cytotoxicity, dose response, cytotoxicity control for Vif-APOBEC3G degradation inhibitor project, THP-1 cells (AID 1117359); assay type: functional; conditions: Human immunodeficiency virus 1, THP-1
[7] = biological target: T3, Tyrosyl-DNA phosphodiesterase 2 (Homo sapiens, UniProt O95551); assay: human TDP2 enzyme inhibitors, dose response, biochemical, epi absorbance, IC50 (AID 743297)
T3 sequence (O95551 whole entry): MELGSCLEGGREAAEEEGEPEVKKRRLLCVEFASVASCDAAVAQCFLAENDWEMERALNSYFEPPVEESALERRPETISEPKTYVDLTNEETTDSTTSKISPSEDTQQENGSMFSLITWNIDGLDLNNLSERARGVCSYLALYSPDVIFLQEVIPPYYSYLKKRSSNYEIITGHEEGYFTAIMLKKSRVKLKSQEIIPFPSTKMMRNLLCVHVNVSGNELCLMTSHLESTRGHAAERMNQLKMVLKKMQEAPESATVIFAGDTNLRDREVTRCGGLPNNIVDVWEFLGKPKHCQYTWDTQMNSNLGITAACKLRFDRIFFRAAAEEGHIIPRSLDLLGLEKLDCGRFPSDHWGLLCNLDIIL

[8] = biological target: T4, Replicative DNA helicase DnaB (Mycobacterium tuberculosis, UniProt P9WMR3); assay: DnaB intein splicing inhibitors, dose response, biochemical, cell-free fluorescence (AID 449749); assay type: functional
T4 sequence (P9WMR3 whole entry): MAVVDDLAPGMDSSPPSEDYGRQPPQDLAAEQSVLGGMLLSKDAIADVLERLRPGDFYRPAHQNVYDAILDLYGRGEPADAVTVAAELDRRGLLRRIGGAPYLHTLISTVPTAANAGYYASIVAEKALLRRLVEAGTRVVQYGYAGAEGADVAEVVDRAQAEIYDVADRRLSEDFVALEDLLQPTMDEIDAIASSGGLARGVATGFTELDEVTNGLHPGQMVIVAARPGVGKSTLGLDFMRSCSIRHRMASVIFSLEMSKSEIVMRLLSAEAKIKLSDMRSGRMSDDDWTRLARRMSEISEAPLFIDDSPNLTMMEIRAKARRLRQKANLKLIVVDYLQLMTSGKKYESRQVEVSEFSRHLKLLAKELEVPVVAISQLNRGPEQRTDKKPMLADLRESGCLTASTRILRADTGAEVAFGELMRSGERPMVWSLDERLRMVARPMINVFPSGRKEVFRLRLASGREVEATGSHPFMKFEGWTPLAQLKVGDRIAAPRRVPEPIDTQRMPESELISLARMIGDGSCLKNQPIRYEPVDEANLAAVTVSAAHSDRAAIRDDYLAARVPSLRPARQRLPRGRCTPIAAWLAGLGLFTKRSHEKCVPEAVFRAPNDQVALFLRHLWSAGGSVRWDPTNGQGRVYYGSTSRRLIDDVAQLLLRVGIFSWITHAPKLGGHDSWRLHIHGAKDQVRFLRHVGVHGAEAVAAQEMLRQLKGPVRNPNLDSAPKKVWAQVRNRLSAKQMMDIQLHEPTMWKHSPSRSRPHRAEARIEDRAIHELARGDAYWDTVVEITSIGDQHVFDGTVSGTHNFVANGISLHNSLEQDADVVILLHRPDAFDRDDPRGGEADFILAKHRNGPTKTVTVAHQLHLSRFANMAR

Protein RecA = biological target: T5, Protein RecA (Mycobacterium tuberculosis, UniProt P9WHJ3); assay: Fluorescence Cell-Free Homogeneous Dose Retest to Identify Inhibitors of RecA-Intein Splicing Activity. [Related pubchem assays (depositor defined):AID2097, AID2223, AID489010, AID492950]; assay type: functional
T5 sequence (P9WHJ3 whole entry): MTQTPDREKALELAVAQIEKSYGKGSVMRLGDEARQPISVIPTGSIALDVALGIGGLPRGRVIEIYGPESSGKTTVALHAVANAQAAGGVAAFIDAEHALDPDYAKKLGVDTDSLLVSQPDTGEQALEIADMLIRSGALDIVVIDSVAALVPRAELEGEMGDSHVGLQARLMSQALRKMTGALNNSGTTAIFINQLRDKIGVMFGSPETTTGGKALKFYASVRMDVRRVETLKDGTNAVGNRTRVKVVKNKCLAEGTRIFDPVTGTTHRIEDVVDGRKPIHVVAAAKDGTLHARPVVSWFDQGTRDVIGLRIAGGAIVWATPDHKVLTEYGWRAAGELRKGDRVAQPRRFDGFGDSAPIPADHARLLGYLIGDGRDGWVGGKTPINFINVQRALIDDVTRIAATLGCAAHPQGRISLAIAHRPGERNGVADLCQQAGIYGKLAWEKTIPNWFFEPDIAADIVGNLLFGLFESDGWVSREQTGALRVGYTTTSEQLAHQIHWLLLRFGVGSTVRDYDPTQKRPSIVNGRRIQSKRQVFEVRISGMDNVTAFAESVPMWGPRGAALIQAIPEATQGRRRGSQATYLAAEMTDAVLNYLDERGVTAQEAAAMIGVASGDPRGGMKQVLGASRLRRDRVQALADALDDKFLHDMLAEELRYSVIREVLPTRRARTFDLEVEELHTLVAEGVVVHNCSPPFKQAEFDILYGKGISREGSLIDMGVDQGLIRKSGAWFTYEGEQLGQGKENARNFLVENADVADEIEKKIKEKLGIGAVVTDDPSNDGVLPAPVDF

[9] = HEK293T cytotoxicity, dose response, cytotoxicity control for miR-122 modulator project, cell-based, activator set, cherry-pick (AID 720690); assay type: functional;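 also: HEK293T human cells scored for general mammalian cytotoxicity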
[10] = HEK293T cytotoxicity, dose response, cytotoxicity control for miR-122 modulator project, cell-based, inhibitor set, cherry-pick, set 2 (AID 720697); assay type: functional
[11] = growth suppression of PTEN-null colon cells, dose response, cell-based, HCT116 PTEN knockout (AID 1047); assay type: functional;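 also: HCT116 colon tumor cells with PTEN knocked out; cells exposed to compound for 60 hours before readout; potency for loss of cell viability measured by luminescence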
[12] = biological target: Voltage-dependent T-type calcium channel subunit alpha-1H (Homo sapiens, UniProt O95180); assay type: functional;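 also: channel activity triggered by adding a high calcium stimulation buffer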
Sequence of Voltage-dependent T-type calcium channel subunit alpha-1H (O95180 whole entry): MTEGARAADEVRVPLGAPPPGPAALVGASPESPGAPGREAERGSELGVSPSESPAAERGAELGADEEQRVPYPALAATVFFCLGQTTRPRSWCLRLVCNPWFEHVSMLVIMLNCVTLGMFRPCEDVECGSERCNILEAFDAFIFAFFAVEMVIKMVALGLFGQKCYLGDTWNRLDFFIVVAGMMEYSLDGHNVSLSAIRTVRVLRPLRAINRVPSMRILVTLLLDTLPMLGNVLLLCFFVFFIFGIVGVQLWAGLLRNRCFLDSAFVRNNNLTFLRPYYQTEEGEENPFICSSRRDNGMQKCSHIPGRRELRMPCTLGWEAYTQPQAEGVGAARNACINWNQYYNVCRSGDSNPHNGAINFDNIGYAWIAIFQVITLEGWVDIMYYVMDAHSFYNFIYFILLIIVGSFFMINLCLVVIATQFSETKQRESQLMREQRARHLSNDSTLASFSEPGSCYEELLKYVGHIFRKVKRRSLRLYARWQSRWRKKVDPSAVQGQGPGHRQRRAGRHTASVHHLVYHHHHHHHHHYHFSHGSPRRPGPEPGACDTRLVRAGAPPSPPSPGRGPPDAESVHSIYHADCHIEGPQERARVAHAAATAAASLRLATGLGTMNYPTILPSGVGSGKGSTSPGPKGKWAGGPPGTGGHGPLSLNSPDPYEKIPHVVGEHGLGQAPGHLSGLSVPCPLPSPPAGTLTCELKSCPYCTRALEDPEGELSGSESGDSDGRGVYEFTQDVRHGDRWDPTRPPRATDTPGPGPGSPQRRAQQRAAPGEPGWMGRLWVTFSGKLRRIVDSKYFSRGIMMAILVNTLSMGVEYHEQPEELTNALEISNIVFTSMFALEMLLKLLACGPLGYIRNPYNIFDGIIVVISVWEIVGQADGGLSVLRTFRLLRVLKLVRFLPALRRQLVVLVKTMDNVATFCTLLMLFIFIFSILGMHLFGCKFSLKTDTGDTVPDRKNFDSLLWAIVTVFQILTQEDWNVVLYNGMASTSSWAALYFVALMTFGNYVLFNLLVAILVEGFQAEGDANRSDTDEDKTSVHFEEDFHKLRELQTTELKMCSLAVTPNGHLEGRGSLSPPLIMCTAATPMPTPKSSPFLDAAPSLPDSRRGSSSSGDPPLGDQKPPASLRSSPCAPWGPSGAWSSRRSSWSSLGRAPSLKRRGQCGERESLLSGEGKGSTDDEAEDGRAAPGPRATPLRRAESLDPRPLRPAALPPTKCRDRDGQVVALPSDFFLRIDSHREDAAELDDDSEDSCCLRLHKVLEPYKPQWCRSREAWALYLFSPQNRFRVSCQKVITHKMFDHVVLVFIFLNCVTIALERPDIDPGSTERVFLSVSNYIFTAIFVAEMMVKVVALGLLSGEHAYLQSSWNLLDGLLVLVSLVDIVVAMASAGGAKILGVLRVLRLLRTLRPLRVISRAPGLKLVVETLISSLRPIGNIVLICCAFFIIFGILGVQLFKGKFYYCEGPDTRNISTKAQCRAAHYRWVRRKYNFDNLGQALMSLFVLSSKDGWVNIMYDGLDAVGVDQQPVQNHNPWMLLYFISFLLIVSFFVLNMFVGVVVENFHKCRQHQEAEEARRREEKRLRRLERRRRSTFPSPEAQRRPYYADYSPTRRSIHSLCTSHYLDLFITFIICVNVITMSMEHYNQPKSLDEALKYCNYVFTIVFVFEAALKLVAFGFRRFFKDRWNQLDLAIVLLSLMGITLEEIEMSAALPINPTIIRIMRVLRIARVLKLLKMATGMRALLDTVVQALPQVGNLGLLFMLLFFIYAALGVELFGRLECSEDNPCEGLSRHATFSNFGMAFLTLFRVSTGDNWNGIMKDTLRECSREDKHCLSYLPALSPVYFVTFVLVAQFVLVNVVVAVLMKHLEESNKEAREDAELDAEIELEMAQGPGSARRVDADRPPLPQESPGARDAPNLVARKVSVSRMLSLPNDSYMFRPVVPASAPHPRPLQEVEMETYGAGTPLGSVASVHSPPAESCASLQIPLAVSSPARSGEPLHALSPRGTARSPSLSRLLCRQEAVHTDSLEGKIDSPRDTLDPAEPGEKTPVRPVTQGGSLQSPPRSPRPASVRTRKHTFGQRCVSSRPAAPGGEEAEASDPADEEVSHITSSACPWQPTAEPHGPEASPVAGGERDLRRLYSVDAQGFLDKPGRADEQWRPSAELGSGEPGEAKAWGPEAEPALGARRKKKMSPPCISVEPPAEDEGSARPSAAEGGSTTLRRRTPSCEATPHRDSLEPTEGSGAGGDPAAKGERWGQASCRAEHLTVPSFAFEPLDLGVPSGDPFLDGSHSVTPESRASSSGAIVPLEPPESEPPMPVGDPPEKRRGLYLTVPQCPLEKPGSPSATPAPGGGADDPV

[13] = growth suppression of beta-catenin-knockout colon cells, dose response, cell-based, HCT116, human colon tumor (AID 1045); assay type: functional;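 also: HCT116 colon tumor cells with beta catenin knocked out; cells exposed to compound for 60 hours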
[14] = biological target: T6, Mannose-6-phosphate isomerase (Homo sapiens, UniProt P34949); assay: human PMI inhibitors, high substrate, primary screen, biochemical, fluorescence intensity, high mannose 6-phosphate (AID 1220)
T6 sequence (P34949 whole entry): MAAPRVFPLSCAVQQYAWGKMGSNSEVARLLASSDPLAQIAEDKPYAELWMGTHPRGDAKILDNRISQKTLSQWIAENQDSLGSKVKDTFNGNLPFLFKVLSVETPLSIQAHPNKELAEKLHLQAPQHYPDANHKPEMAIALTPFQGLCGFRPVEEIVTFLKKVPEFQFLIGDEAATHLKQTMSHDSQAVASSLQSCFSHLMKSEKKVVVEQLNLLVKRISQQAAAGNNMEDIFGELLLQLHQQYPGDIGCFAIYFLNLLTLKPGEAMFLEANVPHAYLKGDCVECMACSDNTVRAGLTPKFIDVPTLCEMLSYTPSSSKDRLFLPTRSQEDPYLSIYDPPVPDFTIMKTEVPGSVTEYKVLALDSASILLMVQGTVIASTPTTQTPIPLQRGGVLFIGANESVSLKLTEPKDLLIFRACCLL

[15] = biological target: Induced myeloid leukemia cell differentiation protein Mcl-1 (Homo sapiens, UniProt Q07820); assay type: functional
Sequence of Induced myeloid leukemia cell differentiation protein Mcl-1 (Q07820 whole entry): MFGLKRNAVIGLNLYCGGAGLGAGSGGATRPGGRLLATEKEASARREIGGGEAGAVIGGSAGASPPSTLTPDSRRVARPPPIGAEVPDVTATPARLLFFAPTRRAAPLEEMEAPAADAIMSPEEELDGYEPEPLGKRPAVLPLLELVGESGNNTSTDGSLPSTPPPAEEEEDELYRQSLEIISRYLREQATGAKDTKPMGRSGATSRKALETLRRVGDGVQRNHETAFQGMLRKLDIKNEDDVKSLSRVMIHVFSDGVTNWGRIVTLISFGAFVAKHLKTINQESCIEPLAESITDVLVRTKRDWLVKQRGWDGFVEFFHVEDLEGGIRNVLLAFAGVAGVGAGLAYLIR

[16] = Luminescence Cell-Based Dose Retest to Confirm Inhibitors of Cancer Stem Cells. [Related pubchem assays (depositor defined):AID2717, AID2721]; assay type: functional; conditions: Homo sapiens
[17] = miR-122 activators in hepatoma reporter cells, dose response, cell-based, Huh7 psiCHECK-miR122, Renilla luciferase, cherry-picked (AID 651956); assay type: functional;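 also: huh7 hepatoma cells stably carrying a psiCHECK-2 miR-122 sensor plasmid; renilla luciferase signal reporting endogenous miR-122 activity after 48 h compound exposure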
[18] = biological target: T7, Ubiquitin-conjugating enzyme E2 N (Homo sapiens, UniProt P61088); assay type: functional;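 also: Dose-response confirmation in a TR-FRET assay detecting UBC13-driven polyubiquitin chain formation, inhibition measured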
T7 sequence (P61088 whole entry): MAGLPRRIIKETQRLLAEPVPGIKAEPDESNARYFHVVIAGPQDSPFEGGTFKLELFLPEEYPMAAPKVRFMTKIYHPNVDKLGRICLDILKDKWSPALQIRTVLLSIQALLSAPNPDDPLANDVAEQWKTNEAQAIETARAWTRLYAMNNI

Melanocortin receptor 4 = Melanocortin receptor 4 (Homo sapiens, UniProt P32245); assay type: functional, cell-based;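 also: Cell-based assay with luminescence read-out, confirmatory dose-response testing for agonist activity of biased ligands at MC4R; human U2OS cells with tagged receptor and beta-arrestin; potency of agonists that increase receptor coupling to beta-arrestin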
Sequence of Melanocortin receptor 4 (P32245 whole entry): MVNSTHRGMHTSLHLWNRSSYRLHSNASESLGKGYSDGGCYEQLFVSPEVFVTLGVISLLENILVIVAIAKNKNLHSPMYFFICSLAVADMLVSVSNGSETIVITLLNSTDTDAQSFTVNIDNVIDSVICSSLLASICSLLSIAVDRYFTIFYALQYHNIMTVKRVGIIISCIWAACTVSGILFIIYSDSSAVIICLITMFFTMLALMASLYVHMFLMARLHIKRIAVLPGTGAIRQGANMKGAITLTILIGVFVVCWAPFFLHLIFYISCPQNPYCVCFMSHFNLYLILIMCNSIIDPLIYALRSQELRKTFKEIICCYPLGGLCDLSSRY

[19] = biological target: T8, DNA repair protein RAD52 homolog (Homo sapiens, UniProt P43351); assay type: functional, biochemical
T8 sequence (P43351 whole entry): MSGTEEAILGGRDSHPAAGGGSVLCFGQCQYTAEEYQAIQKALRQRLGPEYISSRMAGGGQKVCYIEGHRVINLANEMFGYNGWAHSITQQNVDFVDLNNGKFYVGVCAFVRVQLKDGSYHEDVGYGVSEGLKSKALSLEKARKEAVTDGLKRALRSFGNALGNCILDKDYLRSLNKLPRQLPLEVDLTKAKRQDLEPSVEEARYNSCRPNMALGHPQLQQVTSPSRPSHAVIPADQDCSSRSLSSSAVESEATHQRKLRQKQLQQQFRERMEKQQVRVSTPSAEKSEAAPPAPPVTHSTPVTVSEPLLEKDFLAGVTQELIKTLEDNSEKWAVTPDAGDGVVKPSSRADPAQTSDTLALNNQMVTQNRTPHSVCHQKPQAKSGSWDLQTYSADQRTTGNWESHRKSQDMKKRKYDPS

Genome polyprotein = Genome polyprotein (dengue virus type 2, UniProt P29990); assay: Dengue-2 NS5 methyltransferase inhibitors, primary screen, biochemical, confirmation dose response (AID 588689); assay type: functional
Sequence of Genome polyprotein (P29990 2492-3391 limits assumed): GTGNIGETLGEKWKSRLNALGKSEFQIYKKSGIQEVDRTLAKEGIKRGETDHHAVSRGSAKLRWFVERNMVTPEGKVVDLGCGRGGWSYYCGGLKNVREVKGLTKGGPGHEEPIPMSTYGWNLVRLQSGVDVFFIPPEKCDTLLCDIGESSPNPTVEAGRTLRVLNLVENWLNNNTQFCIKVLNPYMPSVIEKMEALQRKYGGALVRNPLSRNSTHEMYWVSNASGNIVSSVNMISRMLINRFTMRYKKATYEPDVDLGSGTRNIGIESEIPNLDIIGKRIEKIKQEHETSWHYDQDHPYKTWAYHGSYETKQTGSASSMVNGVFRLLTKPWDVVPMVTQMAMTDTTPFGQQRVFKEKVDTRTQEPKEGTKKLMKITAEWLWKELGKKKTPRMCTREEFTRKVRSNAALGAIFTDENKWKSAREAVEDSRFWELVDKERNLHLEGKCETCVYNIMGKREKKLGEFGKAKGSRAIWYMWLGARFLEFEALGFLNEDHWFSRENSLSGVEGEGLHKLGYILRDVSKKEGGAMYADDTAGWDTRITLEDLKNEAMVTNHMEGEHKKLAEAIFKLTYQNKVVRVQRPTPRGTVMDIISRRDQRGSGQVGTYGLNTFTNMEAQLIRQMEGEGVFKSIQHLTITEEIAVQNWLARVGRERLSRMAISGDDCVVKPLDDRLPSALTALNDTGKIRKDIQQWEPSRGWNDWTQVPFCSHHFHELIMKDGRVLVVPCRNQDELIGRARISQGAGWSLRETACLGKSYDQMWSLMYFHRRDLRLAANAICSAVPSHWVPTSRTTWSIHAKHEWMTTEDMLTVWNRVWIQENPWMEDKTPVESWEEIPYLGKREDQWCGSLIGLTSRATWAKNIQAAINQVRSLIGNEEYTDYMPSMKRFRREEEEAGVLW

## CC(C)(C)OC(=O)N1CCC(NC(=O)c2[nH]cnc2C(=O)Nc2ccccc2)CC1
[1]
  CC50: > 40 µM (active)

## CC(=O)Nc1ccc(N2C(=O)CC(Sc3nc4ccccc4s3)C2=O)cc1 (centres undefined)
[2]
  IC50: > 67.5 µM (inactive)
[3]
  EC50: > 67.5 µM (inactive)

## CCN1C(=O)c2ccccc2[S+]([O-])c2ccc(C(=O)N3CCCCCC3)cc21 (centres undefined)
[4]
  IC50: > 100 µM (not active)
[5]
  IC50: > 100 µM (inactive)

## COc1ccc(-n2c(SCC(=O)Nc3cc(C)on3)nc3c(c2=O)SCC3)cc1
HEK293
  AC50: 98.6 µM (active)
[4]
  IC50: > 100 µM (not active)
[5]
  IC50: > 100 µM (inactive)

## CCN(Cc1ccccc1)Cc1nnnn1Cc1ccccc1
[6]
  CC50: > 40 µM (active)

## COc1cc(/C=C2/C(=O)N(c3ccc([N+](=O)[O-])cc3)N=C2N2CCOCC2)ccc1O
[7]
  IC50: > 128 µM (inactive)
[8]
  AC50: 19.7 µM (active)
Protein RecA
  EC50: 6.68 µM (active)

## c1ccc(-c2ncc3c(ccc4ccccc43)n2)cc1
[2]
  IC50: > 67.6 µM (inactive)
[3]
  EC50: > 67.6 µM (inactive)

## O=C(NCc1cccs1)C1CC(c2ccccc2O)=NO1 (centres undefined)
[4]
  IC50: > 100 µM (not active)
[5]
  IC50: > 100 µM (inactive)

## CCC1C/C(=C/c2ccco2)C(=O)/C(=C/c2ccco2)C1 (centres undefined)
[6]
  CC50: > 40 µM (active)

## Cc1ccc(OCC(O)Cn2c(=N)n(Cc3ccccc3)c3ccccc32)cc1 (centres undefined)
[9]
  AC50: 14.4 µM (active)
[10]
  AC50: 7.65 µM (active)
[11]
  EC50: 4.53 µM (active)
[12]
  EC50: 4.11 µM (active)
[13]
  EC50: 4.31 µM (active)

## Cc1c(C(=O)N/N=C/c2ccc(-c3ccccc3[N+](=O)[O-])o2)sc(N)c1C#N
[14]
  IC50: > 50 µM (not active)
[15]
  IC50: 3.78 µM (active)

## CCCCCCOc1ccc(/C(C)=N/NC2=NCCN2)cc1
[16]
  AC50: 3.05 µM (active)
[9]
  AC50: 16.3 µM (active)
[10]
  AC50: 16 µM (active)
[17]
  AC50: 22.2 µM (active)
[18]
  IC50: > 20 µM (inactive)
Melanocortin receptor 4
  EC50: > 89.1 µM (inactive)
[19]
  AC50: 23 µM (active)

## COc1ccccc1-c1ccc2c(c1)O[C@@H](CN(C)S(=O)(=O)c1ccc(F)cc1)[C@@H](C)CN([C@@H](C)CO)S2(=O)=O
[9]
  AC50: 42.4 µM (active)

## Oc1ccc2ccccc2c1/C=N\C12CN3CCN(CN(C3)C1)C2
[14]
  IC50: 27.6 µM (active)
Genome polyprotein
  IC50: 53.9 µM (active)
